The text below walks through data of patent publication US10104891B2 (priority 2014, dated 2018).

Type in all cases: in vivo
For one assay, the system named is Phytophthora infestans. Put plainly: whole plant or invertebrate. The following applies: Phytophthora infestans, in Solanum lycopersicum, 96 h, read-out: control value (Test 1).
For assay [1], the system named is Pseudoperonospora cubensis. Put plainly: Test 2: control effect against cucumber downy mildew. The following applies: Pseudoperonospora cubensis, 120 h, control value vs untreated section. Put shortly: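 Cucumber (Sagami hanjiro) at 2-leaf stage sprayed with 4 ppm compound from 10% wettable powder in Tween20 (1/5000); inoculated next day with P. cubensis zoospores, 1.0×10^4 units/ml, 16 hr moist chamber at 22° C. Lesion area rate scored 5 days post-inoculation; control value = (1 − treated/untreated onset area rate)×100.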

In the next assay the test system is Plasmopara viticola. Put plainly: Test 3: control effect against grape downy mildew. As to conditions: Plasmopara viticola, 120 h, control value vs untreated section. Put shortly: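 Neomuscat grape seedlings were sprayed with compound at 4 ppm, diluted from a 10% wettable powder in Tween20 solution. One day later they were inoculated with Plasmopara viticola zoospores at 1.0×10^4 units/ml and held moist at 22° C. for 16 hr. Control value was derived from leaf lesion area at 5 days versus untreated leaves.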

A further assay deals with Pythium graminicola. Put plainly: Test 4: control effect against rice damping-off by the Pythium fungus (soil lavage). The following applies: 1,000 ppm, 2.5 ml test suspension drenched on contaminated soil, rice (koshihikari). Here is the method: A 10% wettable powder created according to the Pharmaceutical Formulation Example 1 was diluted with a Tween20 solution prepared to a concentration of 1/5000, then the compound of formula [1] was prepared to a concentration of 4 ppm. Further, the compound of formula [1] in Test 4 was adjusted to a concentration of 1,000 ppm.
<Test 4 Test of Control Effect Against Rice Damping-Off by the Pythium Fungus (Soil Lavage)>
Distilled water was added to the flora of Pythium graminicola cultured in bentoglass seed culture and stirred with a mixer, and adjusted the contaminated soil to 5 g of bacteria against 1 kg of soil.
In a cell tray having 31×31 mm^2 per cell, 20 ml of the contaminated soil was filled in each cell, and 3 seeds of rice chaff that has been forced to sprout (Species: koshihikari) were seeded, and 5 ml of soil was added for covering, then 2.5 ml of test suspension was drenched, and the seeds were incubated in a moist chamber adjusted to 28° C. for 72 hr to induce sprouting. Then, in a low temperature room of 5° C., the onset of disease was induced for 2 days, then the disease was nurtured for 14 days in a room of 25° C.
The soil was washed, and the apoptosis strain, growth restrained strain, and a healthy strain were measured and the onset rate was calculated by the following formula. Onset rate=[Σ(onset strain number by level×onset index)/(investigated strain×3)]×100 [Onset Index]
1: Growth restrained strain
Also, the following formula was used to compute the control value from the obtained onset index. control value={1−onset area rate at the section applied the test agent/onset area rate of untreated section}×100 Computational formula of the control value: […]

For the compound `O=C(Cn1nc(C(F)(F)F)cc1C(F)(F)F)N1CCC(c2nc(C3OCc4ccc([N+](=O)[O-])cc4CO3)cs2)CC1` (stereo not shown) [Compound 1-95, 4-[4-(7-nitro-1,5-dihydro-3H-2,4-benzodioxepin-3-yl)-2-thiazolyl]-1-[2-[3,5-bis(trifluoromethyl)-1H-pyrazole-1-yl]acetyl]piperidine], the pest or weed control at 4 µg/mL (with Phytophthora infestans; in assay [1]; in the assay on Plasmopara viticola) was 100% throughout. Further, in the assay with Pythium graminicola, the pest or weed control at 1000 ppm is ≥ 90%.

As to `Cc1cc(C(F)(F)F)nn1CC(=O)N1CCC(c2nc(C3OCc4cccc(C=NO)c4CO3)cs2)CC1` (stereo not shown) [Compound 1-96, 4-[4-[6-(hydroxyimino)methyl-1,5-dihydro-3H-2,4-benzodioxepin-3-yl]-2-thiazolyl]-1-[2-[5-methyl-3-(trifluoromethyl)-1H-pyrazole-1-yl]acetyl]piperidine], the pest or weed control at 4 µg/mL (in the assay with Phytophthora infestans; in assay [1]; in the assay with Plasmopara viticola) was 100% each time. Also, the pest or weed control at 1000 ppm in the assay with Pythium graminicola is ≥ 90%.

For the compound `Cc1cc(C(F)(F)F)nn1CC(=O)N1CCC(c2nc(C3OCc4cccc(C(F)F)c4CO3)cs2)CC1` (stereo not shown) [Compound 1-97, 4-[4-[6-(difluoromethyl)-1,5-dihydro-3H-2,4-benzodioxepin-3-yl]-2-thiazolyl]-1-[2-[5-methyl-3-(trifluoromethyl)-1H-pyrazole-1-yl]acetyl]piperidine], the pest or weed control at 4 µg/mL (in the assay with Phytophthora infestans; in assay [1]; with Plasmopara viticola) was 100% throughout. Moreover, in the assay with Pythium graminicola, the pest or weed control at 1000 ppm is ≥ 90%.

Consider `Cc1cc(C(F)(F)F)nn1CC(=O)N1CCC(c2nc(C3OCc4c(Br)ccc(Br)c4CO3)cs2)CC1` [Compound 1-100, 4-[4-(6,9-dibromo-1,5-dihydro-3H-2,4-benzodioxepin-3-yl)-2-thiazolyl]-1-[2-[5-methyl-3-(trifluoromethyl)-1H-pyrazole-1-yl]acetyl]piperidine], for which the pest or weed control at 4 µg/mL (in the assay with Phytophthora infestans; in assay [1]; in the assay on Plasmopara viticola) was 100% throughout. Moreover, the pest or weed control at 1000 ppm in the assay on Pythium graminicola is ≥ 90%.

Turning to `O=C(Cn1nc(C(F)F)cc1C(F)F)N1CCC(c2nc(C3OCc4cccc(Br)c4CO3)cs2)CC1` (stereo not shown) [Compound 1-113, 4-[4-(6-bromo-1,5-dihydro-3H-2,4-benzodioxepin-3-yl)-2-thiazolyl]-1-[2-[3,5-bis(difluoromethyl)-1H-pyrazole-1-yl]acetyl]piperidine], the pest or weed control at 4 µg/mL (with Phytophthora infestans; in assay [1]; in the assay on Plasmopara viticola) was 100% throughout. Besides, in the assay on Pythium graminicola, the pest or weed control at 1000 ppm was ≥ 90%.

`COc1ccc(F)c2c1COC(c1csc(C3CCN(C(=O)Cn4nc(C(F)(F)F)cc4C)CC3)n1)OC2` (stereo not shown) [Compound 1-133, 4-[4-(6-fluoro-9-methoxy-1,5-dihydro-3H-2,4-benzodioxepin-3-yl)-2-thiazolyl]-1-[2-[5-methyl-3-(trifluoromethyl)-1H-pyrazole-1-yl]acetyl]piperidine]: the pest or weed control at 4 µg/mL (in the assay with Phytophthora infestans; in assay [1]; with Plasmopara viticola) was 100% in each case. Moreover, the pest or weed control at 1000 ppm in the assay on Pythium graminicola is ≥ 90%.

For the compound `COc1cccc2c1COC(c1csc(C3CCN(C(=O)Cn4nc(C(F)(F)F)cc4C(F)(F)F)CC3)n1)OC2` (stereo not shown) [Compound 1-140, 4-[4-(6-methoxy-1,5-dihydro-3H-2,4-benzodioxepin-3-yl)-2-thiazolyl]-1-[2-[3,5-bis(trifluoromethyl)-1H-pyrazole-1-yl]acetyl]piperidine], the pest or weed control at 4 µg/mL (with Phytophthora infestans; in assay [1]; with Plasmopara viticola) was 100% in each case. Moreover, in the assay with Pythium graminicola, the pest or weed control at 1000 ppm was ≥ 90%.

`CC(=O)Oc1cccc2c1COC(c1csc(C3CCN(C(=O)Cn4nc(C(F)(F)F)cc4C)CC3)n1)OC2` (stereo not shown) [Compound 1-144, 4-[4-(6-acetoxy-1,5-dihydro-3H-2,4-benzodioxepin-3-yl)-2-thiazolyl]-1-[2-[5-methyl-3-(trifluoromethyl)-1H-pyrazole-1-yl]acetyl]piperidine]: the pest or weed control at 4 µg/mL (with Phytophthora infestans; in assay [1]; with Plasmopara viticola) was 100% in each case. Besides, the pest or weed control at 1000 ppm in the assay with Pythium graminicola was ≥ 90%.

As to `CS(=O)(=O)Oc1ccc(F)c2c1COC(c1csc(C3CCN(C(=S)Cn4nc(C(F)F)cc4C(F)F)CC3)n1)OC2` (stereo not shown) [Compound 1-158, 4-[4-(6-fluoro-9-methylsulfonyloxy-1,5-dihydro-3H-2,4-benzodioxepin-3-yl)-2-thiazolyl]-1-[2-[3,5-bis(difluoromethyl)-1H-pyrazole-1-yl]thioacetyl]piperidine], the pest or weed control at 4 µg/mL (in the assay on Phytophthora infestans; in assay [1]; in the assay on Plasmopara viticola) was 100% each time. For the same compound, the pest or weed control at 1000 ppm in the assay on Pythium graminicola was ≥ 90%.

Turning to `Cc1ccc(C)c(CC(=O)N2CCC(c3nc(C4OCc5cccc(OS(C)(=O)=O)c5CO4)cs3)CC2)c1` (stereo not shown) [Compound 2-1, 4-[4-(6-methylsulfonyloxy-1,5-dihydro-3H-2,4-benzodioxepin-3-yl)-2-thiazolyl]-1-[2-(2,5-dimethylphenyl)acetyl]piperidine], the pest or weed control at 4 µg/mL (in the assay with Phytophthora infestans; in assay [1]; with Plasmopara viticola) was 100% each time. In addition, in the assay on Pythium graminicola, the pest or weed control at 1000 ppm is ≥ 90%.

As for `CS(=O)(=O)Oc1cccc2c1COC(c1csc(C3CCN(C(=O)Cc4cc(Cl)ccc4Cl)CC3)n1)OC2` (stereo not shown) [Compound 2-2, 4-[4-(6-methylsulfonyloxy-1,5-dihydro-3H-2,4-benzodioxepin-3-yl)-2-thiazolyl]-1-[2-(2,5-dichlorophenyl)acetyl]piperidine], the pest or weed control at 4 µg/mL (in the assay on Phytophthora infestans; in assay [1]; with Plasmopara viticola) was 100% throughout. The pest or weed control at 1000 ppm with Pythium graminicola is ≥ 90%.

As to `O=C(Cc1cc(Cl)ccc1Cl)N1CCC(c2nc(C3OCc4c(F)ccc(F)c4CO3)cs2)CC1` [Compound 2-4, 4-[4-(6,9-difluoro-1,5-dihydro-3H-2,4-benzodioxepin-3-yl)-2-thiazolyl]-1-[2-(2,5-dichlorophenyl)acetyl]piperidine], the pest or weed control at 4 µg/mL (with Phytophthora infestans; in assay [1]; with Plasmopara viticola) was 100% each time. Moreover, the pest or weed control at 1000 ppm in the assay with Pythium graminicola is ≥ 90%.

Regarding `Cc1ccc(C)c(NC(=O)N2CCC(c3nc(C4OCc5cccc(OS(C)(=O)=O)c5CO4)cs3)CC2)c1` (stereo not shown) [Compound 2-5, 4-[4-(6-methylsulfonyloxy-1,5-dihydro-3H-2,4-benzodioxepin-3-yl)-2-thiazolyl]-1-[N-(2,5-dimethylphenyl)carbamoyl]piperidine], the pest or weed control at 4 µg/mL (in the assay with Phytophthora infestans; in assay [1]; with Plasmopara viticola) was 100% throughout. Besides, the pest or weed control at 1000 ppm in the assay on Pythium graminicola was ≥ 90%.

For the compound `Cc1ccc(C)c(CC(=O)N2CCC(c3nc(C4OCc5cccc(F)c5CO4)cs3)CC2)c1` (stereo not shown) [Compound 2-7, 4-[4-(6-fluoro-1,5-dihydro-3H-2,4-benzodioxepin-3-yl)-2-thiazolyl]-1-[2-(2,5-dimethylphenyl)acetyl]piperidine], the pest or weed control at 4 µg/mL (with Phytophthora infestans; in assay [1]; with Plasmopara viticola) was 100% in each case. Moreover, the pest or weed control at 1000 ppm in the assay on Pythium graminicola was ≥ 90%.

On to `Cc1ccc(C)c(CC(=O)N2CCC(c3nc(C4OCc5ccc(F)cc5CO4)cs3)CC2)c1` (stereo not shown) [Compound 2-10, 4-[4-(7-fluoro-1,5-dihydro-3H-2,4-benzodioxepin-3-yl)-2-thiazolyl]-1-[2-(2,5-dimethylphenyl)acetyl]piperidine], for which the pest or weed control at 4 µg/mL in the assay with Phytophthora infestans was found to be 80%; in assay [1], 100%; in the assay on Plasmopara viticola, 100%. Further, the pest or weed control at 1000 ppm with Pythium graminicola is ≥ 90%.

With `Cc1ccc(C)c(CC(=O)N2CCC(c3nc(C4OCc5ccccc5C(C)O4)cs3)CC2)c1` (stereo not shown) [Compound 2-13, 4-[4-(1-methyl-1,5-dihydro-3H-2,4-benzodioxepin-3-yl)-2-thiazolyl]-1-[2-(2,5-dimethylphenyl)acetyl]piperidine], the pest or weed control at 4 µg/mL in the assay on Phytophthora infestans amounted to 50%; in assay [1] it was 100%; with Plasmopara viticola, 100%. Besides, the pest or weed control at 1000 ppm with Pythium graminicola is ≥ 90%.
